Measured values taken from PMC11579512, “Deoxybouvardin-glucoside induces apoptosis in non-small cell lung cancer cells by targeting EGFR/MET and AKT signaling pathway” (EXCLI Journal, 2024).
Read-outs that look alike come from different tables or passages of the source.

Experiments:
HCC827 cells [1] = assay: Soft agar anchorage-independent growth, HCC827; format: cell-based, human; conditions: 2 weeks; GEF 1 μM, SAV 2 nM or both
Method: (§1) The anchorage-independent cell growth assay was performed in 6-well plates with dual agar layers containing 0.6 % agar (lower layer) and 0.3 % agar (upper layer) supplemented with BME, 2 mM L-glutamine, 5 μg/ml gentamicin, and 10 % FBS. After 2 weeks of incubation, the number of colonies was assessed using a microscope (Leica, Wetzlar, Germany), and the mean colony area was analyzed using i-Solution ^TM software (Vancouver, BC, Canada).

HCC827GR cells [2] = conditions: GEF 1 μM, SAV 2 nM or both
Method: (§2) All culture media were supplemented with FBS (10 %) and P/S (1 %), and the cells were grown at 37 °C in 5 % CO2.
(§3) The cells were treated with MTT and incubated for 2 h. The supernatants were removed, and the remaining formazan crystals were dissolved in DMSO before absorbance measurement at 570 nm using a Multiscan GO spectrophotometer (Thermo Fisher Scientific, Vantaa, Finland).

HCC827 cells [3] = conditions: GEF 1 μM, SAV 2 nM or both
Method: as §2, §3

HaCaT cells = conditions: GEF 1 μM, SAV 2 nM or both
Method: as §2, §3

HCC827GR cells [4] = assay: Soft agar anchorage-independent growth, HCC827GR; format: cell-based, human; conditions: 2 weeks; for colony number, Control % / colony size, Control %: GEF 1 μM, SAV 2 nM or both
Method: as §1

HCC827GR cells [5] = assay: MTT viability with Z-VAD-FMK, HCC827GR; format: cell-based, human; conditions: Z-VAD-FMK 12 µM, 3 h; DBG 48 h
Method: as §2, §3

HCC827 cells [6] = assay: MTT viability with Z-VAD-FMK, HCC827; format: cell-based, human
Method: as §2, §3

p-EGFR = assay: Immunoblot p-EGFR with NAC pretreatment, HCC827 and HCC827GR cells; format: cell-based, human; conditions: NAC 4 mM; for p-EGFR protein Ratio: control = 1.00
Method: (§4) HaCaT cells were grown in DMEM, whereas HCC827 and HCC827GR cells were grown in RPMI 1640. All culture media were supplemented with FBS (10 %) and P/S (1 %), and the cells were grown at 37 °C in 5 % CO2.
(§5) Cells were lysed in RIPA buffer, and protein concentration was determined using a Bio-Rad DC Protein Assay kit (Bio-Rad, Hercules, CA, USA). Protein samples from the cell lysates were resolved by sodium dodecyl sulfate-polyacrylamide gel electrophoresis and then transferred onto polyvinylidene fluoride membranes. The membranes were blocked with 3 % or 5 % skim milk and then incubated at 4 °C overnight with the indicated primary antibodies, followed by the corresponding horseradish peroxidase-conjugated secondary antibodies at RT for 2 h. Protein bands were visualized using western blotting luminol reagent solution and ImageQuant LAS 500 (GE Healthcare, Uppsala, Sweden). The density of the bands was quantified using ImageJ software (NIH, Bethesda, MD, USA).

p-MET = assay: Immunoblot p-MET with NAC pretreatment, HCC827 and HCC827GR cells; format: cell-based, human; conditions: NAC 4 mM; for p-MET protein Ratio: control = 1.00
Method: as §4, §5

PARP = assay: Immunoblot PARP with NAC pretreatment, HCC827 and HCC827GR cells; format: cell-based, human; conditions: for PARP protein/actin / PARP protein Ratio: NAC 4 mM; for PARP protein Ratio: control = 1.00
Method: as §4, §5

HCC827GR cells [7] = assay: MTT viability after NAC pretreatment, HCC827GR; format: cell-based, human; conditions: HCC827GR, NAC 4 mM
Method: as §2, §3

p-AKT = assay: Immunoblot p-AKT with NAC pretreatment, HCC827 and HCC827GR cells; format: cell-based, human; conditions: NAC 4 mM; for p-AKT protein Ratio: control = 1.00
Method: as §4, §5

caspase-3 = assay: Immunoblot caspase-3 with NAC pretreatment, HCC827 and HCC827GR cells; format: cell-based, human; conditions: for caspase3 protein/actin / caspase3 protein Ratio: NAC 4 mM; for caspase3 protein Ratio: control = 1.00
Method: as §4, §5

HCC827 cells [8] = assay: MTT viability after NAC pretreatment, HCC827; format: cell-based, human; conditions: HCC827, NAC 4 mM
Method: as §2, §3

[9] = NAC 4 mM pretreatment, then DBG

C[C@@H](c1ccc2nccn2c1)n1nnc2ncc(-c3cnn(C)c3)nc21 [SAV, savolitinib, reference compound]
colony formation, in words (HCC827 cells [1]): did not significantly alter the colony size and count | colony size, Control % (HCC827 cells [1]): 94.26% | cell viability (HCC827GR cells [2]; 24 h, mean, n=3): 97.44% | cell viability (HCC827GR cells [2]; 24 h, replicate 1): 102.35% | cell viability (HCC827GR cells [2]; 24 h, replicate 2): 94.96% | cell viability (HCC827GR cells [2]; 24 h, replicate 3): 95.02% | cell viability (HCC827GR cells [2]; 48 h, mean, n=3): 94.70% | cell viability (HCC827GR cells [2]; 48 h, replicate 1): 91.23% | cell viability (HCC827GR cells [2]; 48 h, replicate 2): 97.86% | cell viability (HCC827GR cells [2]; 48 h, replicate 3): 95.02% | cell viability (HCC827 cells [3]; 24 h, mean, n=3): 95.55% | cell viability (HCC827 cells [3]; 24 h, replicate 1): 94.16% | cell viability (HCC827 cells [3]; 24 h, replicate 2): 96.61% | cell viability (HCC827 cells [3]; 24 h, replicate 3): 95.89% | cell viability (HCC827 cells [3]; 48 h, mean, n=3): 94.28% | cell viability (HCC827 cells [3]; 48 h, replicate 1): 94.71% | cell viability (HCC827 cells [3]; 48 h, replicate 2): 94.13% | cell viability (HCC827 cells [3]; 48 h, replicate 3): 94.00% | cell viability (HaCaT cells; 24 h, mean, n=3): 98.31% | cell viability (HaCaT cells; 24 h, replicate 1): 97.97% | cell viability (HaCaT cells; 24 h, replicate 2): 99.14% | cell viability (HaCaT cells; 24 h, replicate 3): 97.82% | cell viability (HaCaT cells; 48 h, mean, n=3): 95.26% | cell viability (HaCaT cells; 48 h, replicate 1): 95.75% | cell viability (HaCaT cells; 48 h, replicate 2): 95.82% | cell viability (HaCaT cells; 48 h, replicate 3): 94.21% | colony number, Control % (HCC827GR cells [4]): 90.34% | colony size, Control % (HCC827GR cells [4]): 125.91% | colony formation, in words (HCC827GR cells [4]; SAV 2 nM): did not significantly alter the colony size and count

Z-Val-Ala-Asp-(OMe)-fluoromethyl ketone [Z-VAD-FMK]
DBG-mediated inhibition of viability with Z-VAD-FMK (HCC827GR cells [5]): significantly recovered | DBG-mediated inhibition of viability with Z-VAD-FMK (HCC827 cells [6]; Z-VAD-FMK 12 µM, 3 h, DBG 48 h): significantly recovered | DBG-induced apoptosis with Z-VAD-FMK (HCC827 cells [6]; Z-VAD-FMK pretreatment, cell line not specified (NSCLC cells)): prevented the DBG-induced apoptosis

COc1cc2ncnc(Nc3ccc(F)c(Cl)c3)c2cc1OCCCN1CCOCC1 [GEF, gefitinib, reference compound]
cell viability (HCC827GR cells [2]; 24 h, mean, n=3): 102.64% | cell viability (HCC827GR cells [2]; 24 h, replicate 1): 103.39% | cell viability (HCC827GR cells [2]; 24 h, replicate 2): 100.47% | cell viability (HCC827GR cells [2]; 24 h, replicate 3): 104.06% | cell viability (HCC827GR cells [2]; 48 h, mean, n=3): 96.35% | cell viability (HCC827GR cells [2]; 48 h, replicate 1): 98.10% | cell viability (HCC827GR cells [2]; 48 h, replicate 2): 91.57% | cell viability (HCC827GR cells [2]; 48 h, replicate 3): 99.38% | cell viability (HaCaT cells; 24 h, mean, n=3): 65.33% | cell viability (HaCaT cells; 24 h, replicate 1): 65.07% | cell viability (HaCaT cells; 24 h, replicate 2): 64.14% | cell viability (HaCaT cells; 24 h, replicate 3): 66.80% | cell viability (HaCaT cells; 48 h, mean, n=3): 39.87% | cell viability (HaCaT cells; 48 h, replicate 1): 39.75% | cell viability (HaCaT cells; 48 h, replicate 2): 40.25% | cell viability (HaCaT cells; 48 h, replicate 3): 39.62% | colony number, Control % (HCC827GR cells [4]): 84.14% | colony size, Control % (HCC827GR cells [4]): 98.13%

CC(=O)N[C@@H](CS)C(=O)O [NAC, N-acetyl-L-cysteine, reference compound]
p-EGFR protein/actin (p-EGFR; HCC827, control 0.90): 0.68 | p-EGFR protein Ratio (p-EGFR; HCC827): 0.76 | p-EGFR protein/actin (p-EGFR; HCC827GR, control 0.93): 0.93 | p-EGFR protein Ratio (p-EGFR; HCC827GR): 1.00 | p-MET protein/actin (p-MET; HCC827, control 1.17): 0.89 | p-MET protein Ratio (p-MET; HCC827): 0.76 | p-MET protein/actin (p-MET; HCC827GR, control 1.14): 1.03 | p-MET protein Ratio (p-MET; HCC827GR): 0.91 | PARP protein/actin (PARP; HCC827, control 0.96): 1.00 | PARP protein Ratio (PARP; HCC827): 1.04 | PARP protein/actin (PARP; HCC827GR, control 0.99): 1.32 | PARP protein Ratio (PARP; HCC827GR): 1.33 | cleaved PARP level (PARP; [9]): significantly prevented the increase | cell viability (relative to untreated = 100.00) (HCC827GR cells [7]; mean of 3): 99.78 | cell viability (relative to untreated = 100.00) (HCC827GR cells [7]; replicate 1): 99.39 | cell viability (relative to untreated = 100.00) (HCC827GR cells [7]; replicate 2): 100.59 | cell viability (relative to untreated = 100.00) (HCC827GR cells [7]; replicate 3): 99.36 | p-AKT protein/actin (p-AKT; HCC827, control 1.00): 0.79 | p-AKT protein Ratio (p-AKT; HCC827): 0.79 | p-AKT protein/actin (p-AKT; HCC827GR, control 1.04): 0.95 | p-AKT protein Ratio (p-AKT; HCC827GR): 0.92 | caspase3 protein/actin (caspase-3; HCC827, control 0.39): 0.48 | caspase3 protein Ratio (caspase-3; HCC827): 1.23 | caspase3 protein/actin (caspase-3; HCC827GR, control 0.59): 0.90 | caspase3 protein Ratio (caspase-3; HCC827GR): 1.54 | cleaved caspase-3 level (caspase-3; [9]): significantly prevented the increase | cell viability (relative to untreated = 100.00) (HCC827 cells [8]; mean of 3): 104.34 | cell viability (relative to untreated = 100.00) (HCC827 cells [8]; replicate 1): 105.47 | cell viability (relative to untreated = 100.00) (HCC827 cells [8]; replicate 2): 103.68 | cell viability (relative to untreated = 100.00) (HCC827 cells [8]; replicate 3): 103.89
